Counter-ions that a name gives are not always drawn. Like-named read-outs stand apart in the source and are kept apart here.
What was measured:
JCV = assay: Anti-JCV activity of structural analogs (Tables 4 and 5); type: cell-based, JC polyomavirus (JCV)
SVG-A cells = assay: Total cell number (DAPI+ events) / cytotoxicity in the JCV infectivity assay; details: for inhibition at 10 µM: Homo sapiens, SVG-A, read-out: % Inhibition total Cell Number @10 uM; for % Inhibition total Cell Number @10 uM: cytotoxicity, DAPI count
Experimental: (§1) SV40 transformed glial cells were seeded in 10% FBS media. The cells were seeded at 2000 cells per well in 75 μl of media per well. On day 2, the media was removed and replaced by 35 μl of a 1× concentrated drug aliquot combined with a 100× diluted JCV Turbo aliquot in 35 μl of 2% FBS media (JCV Turbo is a hybrid Mad-1/SVEΔ virus constructed by insertion of the regulatory region of SV40 into the regulatory region of the Mad-1 strain of JCV (Mad-1/SVE), Vacante et al., Virology 1989, 170: 353-361). The cells were incubated for an hour, after which another 65 uL aliquot of 1× concentrated drug in 2% FBS was added. On day 5 the cells were stained with DAPI (for total cell number) and with a mouse monoclonal antibody against SV40 VP1, which cross reacts with the JCV VP1 protein. […] The information is tabulated as % inhibition (as measured by the number and percentage of JCV positive cells).
(§2) JCV Infectivity Assay: SVG-A cells were seeded at 2,000 cells/well/0.075 ml of culture media in 96 flat-bottom well plate (Corning, N.Y.). The next day compounds were prepared in assay medium (2% heat-inactivated fetal bovine serum, 4 mM L-glutamine, 1×MEM). A master viral plate was prepared by mixing equal volumes of [2×] compound and [2×] diluted virus for the final 1× concentration of the compound and the virus. The plate containing cells was gently inverted and shaken to remove media. From the master plate, 0.035 ml compound/virus was added to designated wells. The cells were incubated with the compound/virus mixture for 60 minutes in a humidified 37° C. CO2 incubator. At that time final concentration of the drug in media was added to designated wells to bring the final volume up to 0.1 ml/well. The plates were incubated for an additional three days, the cells were then washed once with 1×PBS, and fixed in 2% paraformaldehyde/1×PBS for 30 minutes at room temperature. The fixative was removed and the cells were solubilized with 0.5% Triton X100 in PBS for an additional 30 minutes. Infection by Mad-1/SVEΔ virus was visualized by staining with PAB597, a monoclonal antibody against the major capsid protein VP1, the cells were incubated with 0.05 ml of PAB597 (2 μg/ml in 1×PBS) for 60 minutes at 37° C. Following a wash step with 1×PBS, primary antibody was detected with an Alexa-Fluor 488-labeled goat anti-mouse secondary antibody at 1:100 dilution in 1×PBS, cells were counterstained with DAPI at 1 μg/ml (0.05 ml/well) for 30 minutes at 37° C. Cells were washed with 1×PBS and 0.1 ml 1×PBS was added to cells. Field images of each well were acquired and analyzed using the Cellomics ArrayScan (Thermo Scientific Inc, Waltham, Mass.) using the Target Activation software. […] The cells are seeded at 4,000 cells/well/0.075 ml of culture media in 96 flat-bottom well plate (Corning). The culture media is used for the infection. The length of the infection is six to ten days (instead of the three days for SVG-A cells).
(§3) The primary assay employed an SVG-A cell line and JCV Mad1/SVEΔ viral strain.

in vitro = details: human
Experimental: as §1, §2, §3

JCV strain Mad1/SVEΔ = assay: microbe, parasite or virus in culture; type: cell-based, JC polyomavirus (JCV); details: for % Inhibition (total #JCV+) @10 uM: SV40 transformed glial cells, Mad-1/SVEΔ JCV; for % Inhibition (% JCV+) @10 uM: infection rate, JCV+ cells normalised to total cells
Experimental: as §1, §2
Calculations: The rate of JCV infection was calculated by normalizing the number of JCV infected cells by the total number of nucleated cells as % JCV^+ cells=((total # VP1^+ cells)/(total # DAPI^+ cells))*100%. The % of viral inhibition by a compound was calculated using a JCV infection rate instead of using total number of JCV infected cells (e.g., VP1^+ cells).

[1] = published PK data; cited from earlier work
[2] = Table 4, mefloquine functional fingerprint in silico screen compounds
[3] = JC polyomavirus, Glial cell, read-out: % Inhibition (total #JCV+) @10 uM
[4] = JC polyomavirus, SVG-A, read-out: % Inhibition (% JCV+) @10 uM

Row | Compound | inhibition at 10 µM (SVG-A cells) | inhibition at 10 µM (JCV strain Mad1/SVEΔ; [3]) | inhibition at 10 µM (JCV strain Mad1/SVEΔ; [4]) | also measured
1 | CC[C@@H](CO)Nc1nc(NCc2ccccc2)c2ncn(C(C)C)c2n1 (single isomer, unassigned) [ROSCOVITINE, (S)-ISOMER] | – | – | – | anti-JCV activity (JCV; [2]): Yes
2 | Nc1nccc2c1ncn2[C@@H]1O[C@H](CO)[C@@H](O)[C@H]1O [3-DEAZAADENOSINE] | – | – | – | anti-JCV activity (JCV; [2]): Yes
3 | CC(=O)O[C@H]1CC[C@H]2[C@@H]3CCC4=C[C@@H](O)CC[C@@H]4[C@H]3CC[C@]12C [4-ESTREN-3-BETA, 17-BETA-DIOL 17-ACETATE] | – | – | – | anti-JCV activity (JCV; Table 5, fusidic acid analogs): Yes
4 | CC(=O)OC(C)C1CCC2C3CCC4=CC(O)CCC4(C)C3CCC12C (stereo not drawn) [4-PREGNEN-3-BETA, 20-BETA-DIOL 20-ACETATE] | – | – | – | anti-JCV activity (JCV; Table 5, fusidic acid analogs): Yes
5 | CC(=O)OC(C)C1CCC2C3CC(O)C4CC(O)CCC4(C)C3CCC12C (stereo not drawn) [5-BETA-PREGNAN-3-ALPHA, 6-ALPHA, 20-ALPHA-TRIOL 20-ACETATE] | – | – | – | anti-JCV activity (JCV; Table 5, fusidic acid analogs): No
6 | CC(=O)OC(C)C1CCC2C3CC(O)C4CC(O)CCC4(C)C3CCC12C (stereo not drawn) [5-BETA-PREGNAN-3-ALPHA, 6-ALPHA, 20-BETA-TRIOL 20-ACETATE] | – | – | – | anti-JCV activity (JCV; Table 5, fusidic acid analogs): Yes
7 | Nc1ncnc2c1nc(Cl)n2[C@@H]1O[C@H](CO)[C@@H](O)[C@H]1O [8-CHLOROADENOSINE] | – | – | – | anti-JCV activity (JCV; [2]): Yes
8 | CC(=O)OC1CC2CC(O)CCC2(C)C2CC(OC(C)=O)C3(C)C(C(C)CC(=O)O)CCC3C12 (stereo not drawn) [23-NOR-5-BETA-CHOLANIC ACID-3-ALPHA, 7-ALPHA, 12-ALPHA-TRIOL 7,12-DIACETATE] | – | – | – | anti-JCV activity (JCV; Table 5, fusidic acid analogs): No
9 | Nc1ncnc2c1ncn2[C@@H]1O[C@H](CO)[C@@H](O)[C@H]1O [ADENOSINE] | – | – | – | anti-JCV activity (JCV; [2]): No
10 | COc1ccc([C@@H]2Sc3ccccc3N(CCN(C)C)C(=O)[C@@H]2OC(C)=O)cc1 [DILTIAZEM HYDROCHLORIDE] | -4% | 20% | 24% | CC50 at 3 days (in vitro): > 40 µM; IC50 (JCV strain Mad1/SVEΔ; JC polyomavirus, SVG-A): 8.5 µM
11 | Cc1c(Nc2ncccc2C(=O)O)cccc1C(F)(F)F [FLUNIXIN MEGLUMINE] | -4% | 30% | 33% | CC50 (in vitro): 47.7 µM; IC50 (JCV strain Mad1/SVEΔ; JC polyomavirus, SVG-A): 16.6 µM
12 | CC(=O)O[C@H]1C[C@@]2(C)[C@@H](C[C@@H](O)[C@H]3[C@@]4(C)CC[C@@H](O)[C@@H](C)[C@@H]4CC[C@@]32C)/C1=C(\CCC=C(C)C)C(=O)O [FUSIDIC ACID] | -2% | 39% | 40% | plasma Cmax [1]: 10000 to 90000 ng/mL; IC50 (JCV strain Mad1/SVEΔ; JC polyomavirus, SVG-A): 8.6 µM
13 | Nc1nc2c(ncn2[C@@H]2O[C@H](CO)[C@@H](O)[C@H]2O)c(=O)[nH]1 [GUANOSINE] | – | – | – | anti-JCV activity (JCV; [2]): No
14 | CC1=C(/C=C/C(C)=C/C=C/C(C)=C\C(=O)O)C(C)(C)CCC1 [ISOTRETINOIN] | 15% | 39% | 28% | plasma Cmax [1]: 1100 ng/mL; IC50 (JCV strain Mad1/SVEΔ; JC polyomavirus, SVG-A): 4.4 µM
15 | Clc1ccc(COC(Cn2ccnc2)c2ccc(Cl)cc2Cl)c(Cl)c1 (centres unmarked) [MICONAZOLE NITRATE] | 7% | 46% | 42% | plasma Cmax [1]: 10 ng/mL; CC50 (SVG-A cells; read-out: TC50, inhibition of total cell numbers by 50%): 22.9 µM
16 | Nc1nc(OCC2CCCCC2)c2[nH]cnc2n1 [O6-Cyclohexylmethylguanine] | – | – | – | anti-JCV activity (JCV; [2]): Yes
17 | COc1cc([C@@H]2c3cc4c(cc3[C@H](O)[C@H]3COC(=O)[C@@H]23)OCO4)cc(OC)c1OC [PICROPODOPHYLLOTOXIN] | -1% | 19% | 22% | –
18 | COc1cc(/C=C/C(=O)N2CCC=CC2=O)cc(OC)c1OC [PIPLARTINE] | -7% | 21% | 27% | –
19 | O=c1cc(-c2ccccc2)oc2cccc(O)c12 [PRIMULETIN] | – | – | – | % Inhibition total Cell Number @10 uM (SVG-A cells): 12%; % Inhibition (total #JCV+) @10 uM (JCV strain Mad1/SVEΔ): 40%; % Inhibition (% JCV+) @10 uM (JCV strain Mad1/SVEΔ): 29%
20 | CC1=CCc2c(cc3oc(C)cc(=O)c3c2O)OC1 [PTAEROXYLIN] | 11% | 32% | 22% | –
21 | CN1CCCN=C1/C=C/c1cccs1 [PYRANTEL PAMOATE] | 12% | 48% | 42% | –
22 | CN(CCOc1ccc(CC2SC(=O)NC2=O)cc1)c1ccccn1 (centres unmarked) [ROSIGLITAZONE] | -1% | 22% | 23% | –
23 | c1ccc2[nH]c(-c3cscn3)nc2c1 [THIABENDAZOLE] | -1% | 19% | 22% | –
24 | Cc1c(Cl)cccc1Nc1ccccc1C(=O)O [TOLFENAMIC ACID] | 18% | 61% | 53% | –
25 | C[C@H]1CC[C@]2(NC1)O[C@H]1C[C@H]3[C@@H]4CC[C@H]5C[C@@H](O[C@@H]6O[C@H](CO)[C@H](O[C@@H]7O[C@H](CO)[C@@H](O)[C@H](O[C@@H]8OC[C@@H](O)[C@H](O)[C@H]8O)[C@H]7O[C@@H]7O[C@H](CO)[C@@H](O)[C@H](O)[C@H]7O)[C@H](O)[C@H]6O)CC[C@]5(C)[C@H]4CC[C@]3(C)[C@H]1[C@@H]2C [TOMATINE] | 12% | 40% | 29% | –
26 | O=c1c2ccccc2oc2ccccc12 [XANTHONE] | 1% | 39% | 39% | IC50 (JCV strain Mad1/SVEΔ; JC polyomavirus, SVG-A): 16.8 µM
27 | Nc1ccn(C[C@@H](CO)OCP(=O)(O)O)c(=O)n1 [cidofovir] | – | – | – | inhibition of total number of cells in culture, in words (SVG-A cells): inhibited the total number of cells in culture to the same degree; percent inhibition of infection rate (% JCV+ cells), in words (JCV strain Mad1/SVEΔ; FIG. 3D, SVG-A cells): not significant
28 | DEHYDROABIETAMIDE | – | – | – | CC50 (SVG-A cells): > 40 µM; % Inhibition total Cell Number @10 uM (SVG-A cells): 11%; % Inhibition (total #JCV+) @10 uM (JCV strain Mad1/SVEΔ): 40%; % Inhibition (% JCV+) @10 uM (JCV strain Mad1/SVEΔ): 33%; IC50 (JCV strain Mad1/SVEΔ; anti-JCV, inhibition of % JCV infected cells by 50%, full dose response, read-out: IC50): 13 µM
29 | GINKGOLIC ACID | – | – | – | % Inhibition total Cell Number @10 uM (SVG-A cells): −8%; % Inhibition (total #JCV+) @10 uM (JCV strain Mad1/SVEΔ): 33%; % Inhibition (% JCV+) @10 uM (JCV strain Mad1/SVEΔ): 39%
30 | POLYMYXIN B SULFATE | – | – | – | % Inhibition total Cell Number @10 uM (SVG-A cells): −8%; % Inhibition (total #JCV+) @10 uM (JCV strain Mad1/SVEΔ): 36%; % Inhibition (% JCV+) @10 uM (JCV strain Mad1/SVEΔ): 41%

Source: patent US9233107B2, “Compositions and methods for the treatment of progressive multifocal leukoencephalopathy (PML)” (Biogen MA Inc., priority 2007, dated 2016)
